Data from PubChem BioAssay AID1963869 (Molecular Pharmacology Branch, DTP, NCI, 2024).

Test system: KRAS patient-derived spheroids with HUVEC/MSC, viability
Assay: Anticancer human tumor 323965-272-R-J2-PDC patient-derived pancreatic carcinoma cell line growth inhibition [KRAS2]
Conditions: for IC50: curve of first compound; for viability, T/C: stronger effect = lower value
How it was run: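 Combination screen of spheroid viability in tumor-cell co-cultures with endothelial (HUVEC) and mesenchymal stem cell stroma. Each agent was tested in half-log dilutions, topping at clinical Cmax or at 10 microM without a known Cmax.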

[1] = second compound 0.0316 µM, first compound 0.0316 µM
[2] = second compound 0.0316 µM, first compound 0.1 µM
[3] = second compound 0.0316 µM, first compound 0.316 µM
[4] = second compound 0.0316 µM, first compound 1 µM
[5] = second compound 0.0316 µM, first compound 3.16 µM
[6] = second compound 0.0316 µM, first compound 10 µM
[7] = second compound 0.1 µM, first compound 0.0316 µM
[8] = second compound 0.1 µM, first compound 0.1 µM
[9] = second compound 0.1 µM, first compound 0.316 µM
[10] = second compound 0.1 µM, first compound 1 µM
[11] = second compound 0.1 µM, first compound 3.16 µM
[12] = second compound 0.1 µM, first compound 10 µM
[13] = second compound 0.316 µM, first compound 0.0316 µM
[14] = second compound 0.316 µM, first compound 0.1 µM
[15] = second compound 0.316 µM, first compound 0.316 µM
[16] = second compound 0.316 µM, first compound 1 µM
[17] = second compound 0.316 µM, first compound 3.16 µM
[18] = second compound 0.316 µM, first compound 10 µM
[19] = second compound 1 µM, first compound 0.0316 µM
[20] = second compound 1 µM, first compound 0.1 µM
[21] = second compound 1 µM, first compound 0.316 µM
[22] = second compound 1 µM, first compound 1 µM
[23] = second compound 1 µM, first compound 3.16 µM
[24] = second compound 1 µM, first compound 10 µM
[25] = second compound 3.16 µM, first compound 0.0316 µM
[26] = second compound 3.16 µM, first compound 0.1 µM
[27] = second compound 3.16 µM, first compound 0.316 µM
[28] = second compound 3.16 µM, first compound 1 µM
[29] = second compound 3.16 µM, first compound 3.16 µM
[30] = second compound 3.16 µM, first compound 10 µM
[31] = second compound 0.0316 µM, first compound 0.000316 µM
[32] = second compound 0.0316 µM, first compound 0.001 µM
[33] = second compound 0.0316 µM, first compound 0.00316 µM
[34] = second compound 0.0316 µM, first compound 0.01 µM
[35] = second compound 0.1 µM, first compound 0.000316 µM
[36] = second compound 0.1 µM, first compound 0.001 µM
[37] = second compound 0.1 µM, first compound 0.00316 µM
[38] = second compound 0.1 µM, first compound 0.01 µM
[39] = second compound 0.316 µM, first compound 0.000316 µM
[40] = second compound 0.316 µM, first compound 0.001 µM
[41] = second compound 0.316 µM, first compound 0.00316 µM
[42] = second compound 0.316 µM, first compound 0.01 µM
[43] = second compound 1 µM, first compound 0.000316 µM
[44] = second compound 1 µM, first compound 0.001 µM
[45] = second compound 1 µM, first compound 0.00316 µM
[46] = second compound 1 µM, first compound 0.01 µM
[47] = second compound 3.16 µM, first compound 0.000316 µM
[48] = second compound 3.16 µM, first compound 0.001 µM
[49] = second compound 3.16 µM, first compound 0.00316 µM
[50] = second compound 3.16 µM, first compound 0.01 µM
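Further: spheroids exposed to agents for 7 days.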
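Wherever viability, T/C is given: 100% = DMSO vehicle control viability.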

SMILES	IC50 (second compound 0.0316 µM) [nM]	IC50 (second compound 0.1 µM) [nM]	IC50 (second compound 0.316 µM) [nM]	IC50 (second compound 1 µM) [nM]	IC50 (second compound 3.16 µM) [nM]	viability, T/C [1] [%]	viability, T/C [2] [%]	viability, T/C [3] [%]	viability, T/C [4] [%]	viability, T/C [7] [%]	viability, T/C [8] [%]	viability, T/C [9] [%]	viability, T/C [10] [%]	viability, T/C [13] [%]	viability, T/C [14] [%]	viability, T/C [15] [%]	viability, T/C [19] [%]	viability, T/C [20] [%]	viability, T/C [25] [%]	viability, T/C [26] [%]	other results
CC(C)NCC(C(=O)N1CCN(c2ncnc3c2C(C)CC3O)CC1)c1ccc(Cl)cc1 (stereo not given) + C=CC(=O)N1CCN(c2nc(OCC3CCCN3C)nc3c2CCN(c2cccc4cccc(C)c24)C3)CC1CC#N	489	251	132	118	< 31.6	64.4	62.4	54.3	42.2	64.5	54.9	50.2	39.2	58.8	50.6	44.1	57.7	53.6	10.2	6.16	viability, T/C [5]: 35.7%; viability, T/C [6]: 29.8%; viability, T/C [11]: 30.8%; viability, T/C [12]: 29.1%; viability, T/C [16]: 31.8%; viability, T/C [17]: 26.2%; viability, T/C [18]: 26.3%; viability, T/C [21]: 38.6%; viability, T/C [22]: 33.4%; viability, T/C [23]: 26.4%; viability, T/C [24]: 23.1%; viability, T/C [27]: 5.23%; viability, T/C [28]: 4.82%; viability, T/C [29]: 3.02%; viability, T/C [30]: 1.82%
CC(C)n1nc(-c2ccc3oc(N)nc3c2)c2c(N)ncnc21 + C=CC(=O)N1CCN(c2nc(OCC3CCCN3C)nc3c2CCN(c2cccc4cccc(C)c24)C3)CC1CC#N	0.596	0.419	< 0.316	< 0.316	< 0.316	17.2	14.5	–	–	16.5	13.5	–	–	14.8	12.1	–	13.9	11.1	5.8	4.1	viability, T/C [31]: 53%; viability, T/C [32]: 49.6%; viability, T/C [33]: 30.5%; viability, T/C [34]: 26%; viability, T/C [35]: 52%; viability, T/C [36]: 43.7%; viability, T/C [37]: 30.9%; viability, T/C [38]: 21.1%; viability, T/C [39]: 45.9%; viability, T/C [40]: 37.3%; viability, T/C [41]: 27.6%; viability, T/C [42]: 18.7%; viability, T/C [43]: 49.9%; viability, T/C [44]: 37.7%; viability, T/C [45]: 28.3%; viability, T/C [46]: 17.6%; viability, T/C [47]: 28.4%; viability, T/C [48]: 9.51%; viability, T/C [49]: 15.1%; viability, T/C [50]: 2.78%
CC1(C)CCC(CN2CCN(c3ccc(C(=O)NS(=O)(=O)c4ccc(NCC5CCOCC5)c([N+](=O)[O-])c4)c(Oc4cnc5[nH]ccc5c4)c3)CC2)=C(c2ccc(Cl)cc2)C1 + C=CC(=O)N1CCN(c2nc(OCC3CCCN3C)nc3c2CCN(c2cccc4cccc(C)c24)C3)CC1CC#N	1380	1360	1120	1030	< 31.6	65.2	69.2	67.2	66.6	68.2	67.1	60.1	67.6	59.6	61.6	61.6	62.1	61.9	7.81	6.48	viability, T/C [5]: 6.91%; viability, T/C [6]: 1.68%; viability, T/C [11]: 7.16%; viability, T/C [12]: 1.62%; viability, T/C [16]: 54.9%; viability, T/C [17]: 3.92%; viability, T/C [18]: 2.34%; viability, T/C [21]: 55.6%; viability, T/C [22]: 51.2%; viability, T/C [23]: 2.41%; viability, T/C [24]: 0.74%; viability, T/C [27]: 3.08%; viability, T/C [28]: 0.59%; viability, T/C [29]: 0.43%; viability, T/C [30]: 0.18%
CCN1CCN(Cc2ccc(Nc3ncc(F)c(-c4cc(F)c5nc(C)n(C(C)C)c5c4)n3)nc2)CC1 + C=CC(=O)N1CCN(c2nc(OCC3CCCN3C)nc3c2CCN(c2cccc4cccc(C)c24)C3)CC1CC#N	8.21	4.98	< 3.16	6.25	< 3.16	39.1	38.6	37.2	45.5	39.1	31.2	31.7	44	33.8	32.8	31.9	36.6	28.8	3.68	2.57	viability, T/C [33]: 60.6%; viability, T/C [34]: 51.1%; viability, T/C [37]: 53.6%; viability, T/C [38]: 46%; viability, T/C [41]: 45%; viability, T/C [42]: 44.8%; viability, T/C [16]: 38.8%; viability, T/C [45]: 58.6%; viability, T/C [46]: 45.9%; viability, T/C [21]: 30.3%; viability, T/C [22]: 36.1%; viability, T/C [49]: 3%; viability, T/C [50]: 4.98%; viability, T/C [27]: 3.48%; viability, T/C [28]: 0.89%
CCNC(=O)CC1N=C(c2ccc(Cl)cc2)c2cc(OC)ccc2-n2c(C)nnc21 (stereo not given) + C=CC(=O)N1CCN(c2nc(OCC3CCCN3C)nc3c2CCN(c2cccc4cccc(C)c24)C3)CC1CC#N	210	101	240	111	< 31.6	75.3	59.5	46.3	30.4	63.1	51.1	35.6	31.9	89.5	91.3	37.3	60.4	50.6	10.5	6.25	viability, T/C [5]: 26.4%; viability, T/C [6]: 27.2%; viability, T/C [11]: 26.3%; viability, T/C [12]: 24.2%; viability, T/C [16]: 29.7%; viability, T/C [17]: 24.7%; viability, T/C [18]: 24.1%; viability, T/C [21]: 38.5%; viability, T/C [22]: 27%; viability, T/C [23]: 22.6%; viability, T/C [24]: 22.5%; viability, T/C [27]: 3.72%; viability, T/C [28]: 0.16%; viability, T/C [29]: 1.28%; viability, T/C [30]: 0.88%
Cn1ncnc1[C@H]1c2n[nH]c(=O)c3cc(F)cc(c23)N[C@@H]1c1ccc(F)cc1 + C=CC(=O)N1CCN(c2nc(OCC3CCCN3C)nc3c2CCN(c2cccc4cccc(C)c24)C3)CC1CC#N	> 100	> 100	> 100	> 100	< 0.316	68.7	64	–	–	60.5	53.8	–	–	56.1	57.7	–	52.8	57	12.4	11.6	viability, T/C [31]: 75.5%; viability, T/C [32]: 83.2%; viability, T/C [33]: 73.7%; viability, T/C [34]: 71.2%; viability, T/C [35]: 71.2%; viability, T/C [36]: 62.3%; viability, T/C [37]: 62%; viability, T/C [38]: 61.5%; viability, T/C [39]: 64.2%; viability, T/C [40]: 63.8%; viability, T/C [41]: 62.7%; viability, T/C [42]: 60.4%; viability, T/C [43]: 58.6%; viability, T/C [44]: 65.5%; viability, T/C [45]: 59.6%; viability, T/C [46]: 62.6%; viability, T/C [47]: 12.5%; viability, T/C [48]: 10.9%; viability, T/C [49]: 13.9%; viability, T/C [50]: 11.5%
